Assay results published in patent US9499529B2 (California State University Fresno, priority 2013, dated 2016).

What was measured:
[1] = tested on: HeLa cervical cancer cells; assay: HeLa cell viability after treatment with analog (cell count, cell viability analyzer); format: cell-based, human; settings: for HeLa Cell viability after treatment with analog (% viability): three days, relative to DMSO vehicle
Description: Cell numbers were counted with a cell viability analyzer (Beckman-Coulter). The ratio of drug treated viable cell numbers to control vehicle (DMSO) treated viable cell numbers was defined as percentage viability. […] Compound nos.
The HeLa cells used in the experiments summarized by Table 5 were cultured in RPMI-1640 medium supplemented with 10% FBS, 4 mM glutamine, 1 mM sodium pyruvate, 100 IU/mL penicillin, 100 ug/mL streptomycin and 0.25 ug/mL amphotericin. The HeLa cells were plated in 24-well plates at a density of 20,000 cells in each well in 10% FBS RPMI-1640. […] Cell numbers were counted with a cell viability analyzer (Beckman-Coulter). […]

[2] = tested on: PC-3 prostate cancer cells; assay: In vitro cytotoxicity against PC-3 prostate cancer cells; format: cell-based, human; settings: PC-3 cells, five days
Description: (§1) The half maximal inhibitory concentration (IC50) is a measure of the effectiveness of a substance in inhibiting a specific biological or biochemical function. It is commonly used as a measure of antagonist drug potency.
Cell cultures were maintained in 5% carbon dioxide at a temperature of 37° C. […] Cell numbers were counted with a cell viability analyzer (Beckman-Coulter). […] A preliminary dose response curve was prepared from the collected data by means well known to those of ordinary skill in the art.
(§2) The six different concentrations fell within a selected linear concentration range determined by reference to the preliminary dose response curve and efforts to estimate the concentration at which 50% of the cell growth would be inhibited. The selected six different concentrations were used to further fill out the dose response curve to pinpoint a more exact IC50 value.

[3] = tested on: DU-145 prostate cancer cells; assay: In vitro cytotoxicity against DU-145 prostate cancer cells; format: cell-based, human; settings: DU-145 cells, five days
Description: as §1
Cell numbers were counted with a cell viability analyzer (Beckman-Coulter).
(§3) A preliminary dose response curve was prepared from the collected data by means well known to those of ordinary skill in the art.
as §2

[4] = tested on: HeLa cervical cancer cells; assay: In vitro cytotoxicity against HeLa cervical cancer cells; format: cell-based, human; settings: for IC50: three days
Description: as §1
(§4) Cell numbers were counted with a cell viability analyzer (Beckman-Coulter). The ratio of drug treated viable cell numbers to vehicle treated viable cell numbers was defined as percentage viability.
as §3, §2

[5] = tested on: MCF-10A normal mammary epithelial cells; assay: Cytotoxicity towards non-cancerous MCF-10A cells (FIG. 9); format: cell-based; settings: for cytotoxicity towards MCF-10A normal mammary epithelial cells (in words): 0.1 μM, and 0.01 μM
Description: The MCF-10A normal mammary epithelial cells were cultured in RPMI-1640 medium supplemented with 10% FBS, 4 mM glutamine, 1 mM sodium pyruvate, 100 IU/mL penicillin, 100 ug/mL streptomycin and 0.25 ug/mL amphotericin. The MCF-10A cells were plated in 24-well plates at a density of 20,000 each well in 10% FBS RPMI-1640 or DMED medium. […] Cell numbers were counted with a cell viability analyzer (Beckman-Coulter).

[6] = tested on: PC-3 prostate cancer cell line; settings: cited from earlier work
[7] = tested on: MDA-MB-231 breast cancer cells; assay: In vitro cytotoxicity toward MDA-MB-231 cells; format: cell-based; settings: Homo sapiens, 120 h, five days, read-out: IC50 (analog)
From the text: as §4

[8] = tested on: A549 non-small cell lung cancer cells; assay: In vitro cytotoxicity toward A549 cells; format: cell-based; settings: Homo sapiens, 120 h, between three and five days, read-out: IC50 (analog)
From the text: as §4

[9] = Homo sapiens, HeLa, 72 h, read-out: HeLa Cell viability after treatment with analog (% viability)

Structure (SMILES)	HeLa Cell viability after treatment with analog (% viability) ([1]; 1 μM)	HeLa Cell viability after treatment with analog (% viability) ([1]; 10 μM)	IC50 [2]	IC50 [3]	IC50 (curcumin)/IC50 (analog) [4]	IC50 [4]	survival of MCF-10A cells ([5]; 0.01 μM, five days, FIG. 9)	survival of MCF-10A cells ([5]; 0.1 μM, five days, FIG. 9)	cytotoxicity towards MCF-10A normal mammary epithelial cells (in words) ([5]; 1 μM, FIG. 9)	survival of MCF-10A cells ([5]; 1 μM, five days, FIG. 9)	potency towards PC-3 prostate cancer cell line relative to curcumin [6]	viability at 1 µM [1, 9]	IC50 [7]	IC50 [8]	other results
CCC(C)n1ccnc1/C=C/C(=O)/C=C/c1nccn1C(C)CC (stereo not drawn) [Compound 21]	81.8%	17.7%	63 nM	35 nM	16	654 nM	100%	about 90%	no apparent cytotoxicity	about 80%					
COc1cc(/C=C/C(=O)/C=C/c2cc(OC)c(O)c(OC)c2)cc(OC)c1O [FLLL12]											more potent than curcumin				
COc1cc(/C=C/C(=O)/C=C/c2ccc(O)c(OC)c2)ccc1O [FLLL11]											more potent than curcumin				
COc1cc(/C=C/C(=O)CC(=O)/C=C/c2ccc(O)c(OC)c2)ccc1O [curcumin, reference compound]												100%	880 nM	15000 nM	viability at 10 µM [1, 9]: 42.5%; IC50 ([2]; Homo sapiens, PC-3, 120 h): 1980 nM; IC50 ([3]; Homo sapiens, DU-145, 120 h): 300 nM; IC50 ([4]; Homo sapiens, HeLa, 72 h): 10500 nM; survival of MCF-10A cells ([5]; human, 5 days, 0.01 µM): 100%; survival of MCF-10A cells ([5]; human, 5 days, 0.1 µM): about 95%; survival of MCF-10A cells ([5]; human, 5 days, 1 µM): about 95%
CC(C)Cn1ccnc1/C=C/C(=O)/C=C/c1nccn1CC(C)C [Compound 22]	34.1%	23.1%	46 nM	57 nM	24	430 nM	100%	about 85%	no apparent cytotoxicity	about 85%					
Cc1cc(/C=C/C(=O)/C=C/c2cc(C)no2)on1 [Compound 28, (1E,4E)-1,5-Bis(3-methylisoxazol-5-yl)penta-1,4-dien-3-one]			41 nM	16 nM		226 nM	about 90%	about 90%		about 85%		28%	156 nM	160 nM	melting point: 167 to 169 °C
